Experimental data reported in patent US9988397B2, “ERK inhibitors” (Merck Sharp & Dohme Corp., priority 2014, dated 2018).

Molecular target: phosphorylated active hERK2 enzyme (Homo sapiens, UniProt P28482)
Experiment: Active human ERK2 (hERK2) Activity Assay (IMAP-FP)
Assay type: biochemical
Conditions: 10 point titration, 3 μM starting concentration, 0.5 nM hERK2, 30 μM ATP, 60 minutes reaction
Protocol: Activated ERK2 activity was determined in an IMAP-FP assay (Molecular Devices). Using this assay format, the potency (IC50) of each compound was determined from a 10 point (1:3 serial dilution, 3 μM starting compound concentration) titration curve using the following outlined procedure. […] Following a 15 minute compound & enzyme incubation, each reaction was initiated by the addition of 10 μL kinase buffer containing 2.45 μM ERK2 IMAP substrate peptides and 75 μM ATP. The final reaction in each well of 25 μL consists of 0.5 nM hERK2, 900 nM unlabeled peptide, 80 nM labeled-peptide, and 30 μM ATP. Phosphorylation reactions were allowed to proceed for 60 minutes and were immediately quenched by the addition of 60 μL IMAP detection beads (1:1000 dilutions) in IMAP binding buffer (Molecular Devices) with 24 mM NaCl. Plates were read on EnVision reader after 60 minutes binding equilibration using Fluorescence Polarization protocol (Perkin Elmer).

Chain of phosphorylated active hERK2 enzyme (P28482 whole entry): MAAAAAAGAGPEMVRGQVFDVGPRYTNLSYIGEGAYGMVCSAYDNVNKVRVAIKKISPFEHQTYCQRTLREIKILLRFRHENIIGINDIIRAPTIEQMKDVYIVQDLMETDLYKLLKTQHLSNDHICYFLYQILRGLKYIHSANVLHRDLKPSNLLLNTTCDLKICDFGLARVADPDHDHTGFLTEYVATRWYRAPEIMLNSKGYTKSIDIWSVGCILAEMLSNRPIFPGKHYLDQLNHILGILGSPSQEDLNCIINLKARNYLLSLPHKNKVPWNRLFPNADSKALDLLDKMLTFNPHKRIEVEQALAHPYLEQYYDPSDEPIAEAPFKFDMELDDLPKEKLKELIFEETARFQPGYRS

Row | IC50 | Compound
1 | 87.3 nM | Cc1cc(-n2ncc3cc4nc(c32)Cn2cc(nn2)CC(c2ccccc2)NC(=O)N4)ccn1 (single isomer, unassigned) [Example 38, 1-(2-Methylpyridin-4-yl)-9-phenyl-1,6,9,10-tetrahydro-5,16-(azeno)-14,11-(metheno)pyrazolo[4,3-l][1,2,3,7,9]pentaazacyclopentadecin-7(8H,15H)-one]
2 | 233 nM | Cc1cc(-n2ncc3cc4nc(c32)Cn2cc(nn2)CC(c2ccccc2)NC(=O)N4)ccn1 (single isomer, unassigned) [Example 39, 1-(2-Methylpyridin-4-yl)-9-phenyl-1,6,9,10-tetrahydro-5,16-(azeno)-14,11-(metheno)pyrazolo[4,3-l][1,2,3,7,9]pentaazacyclopentadecin-7(8H,15H)-one]
3 | 32.8 nM | CCn1ncc2cc3nc(c21)C[C@@H](OC)COC[C@@H](c1ccccc1)NC(=O)N3 (stereo in doubt) [Example 44, (9R,13R)-1-Ethyl-13-methoxy-9-phenyl-1,6,9,10,13,14-hexahydro-12H-5,15-(azeno)pyrazolo[4,3-i][1,4,6]oxadiazacyclotetradecin-7(8H)-one]
4 | 8.79 nM | CCn1ncc2cc3nc(c21)CCCOC[C@H](c1ccccc1)NC(=O)N3 [Example 1, (9S)-1-Ethyl-9-phenyl-1,6,9,10,13,14-hexahydro-12H-5,15-(azeno)pyrazolo[4,3-i][1,4,6]oxadiazacyclotetradecin-7(8H)-one]
5 | 10.2 nM | Cn1ncc2cc3nc(c21)CCCOC[C@H](c1ccccc1)NC(=O)N3 [Example 2, (9S)-1-Methyl-9-phenyl-1,6,9,10,13,14-hexahydro-12H-5,15-(azeno)pyrazolo[4,3-i][1,4,6]oxadiazacyclotetradecin-7(8H)-one]
6 | 114 nM | CCn1ncc2cc3nc(c21)CC(C)(O)COC[C@H](c1ccccc1)NC(=O)N3 (stereo partly drawn) [Example 5, (9S)-1-Ethyl-13-hydroxy-13-methyl-9-phenyl-1,6,9,10,13,14-hexahydro-12H-5,15-(azeno)pyrazolo[4,3-i][1,4,6]oxadiazacyclotetradecin-7(8H)-one]
7 | 11.6 nM | CCn1ncc2cc3nc(c21)[C@@H]1C[C@@H]1COC[C@H](c1ccccc1)NC(=O)N3 [Example 7, (9S,12aS,13 aR)-1-Ethyl-9-phenyl-1,6,9,10,12,12a,13,13a-octahydro-5,14-(azeno)cyclopropa[l]pyrazolo[4,3-i][1,4,6]oxadiazacyclotetradecin-7(8H)-one]
8 | 49.7 nM | CCn1ncc2cc3nc(c21)[C@H]1C[C@H]1COC[C@H](c1ccccc1)NC(=O)N3 [Example 8, (9S,12aR,13aS)-1-Ethyl-9-phenyl-1,6,9,10,12,12a,13,13a-octahydro-5,14-(azeno)cyclopropa[1]pyrazolo[4,3-i][1,4,6]oxadiazacyclotetradecin-7(8H)-one]
9 | 12.5 nM | O=C1Nc2cc3cnn(C(F)F)c3c(n2)CCCOC[C@H](c2ccccc2)N1 [Example 9, (9S)-1-(Difluoromethyl)-9-phenyl-1,6,9,10,13,14-hexahydro-12H-5,15-(azeno)pyrazolo[4,3-i][1,4,6]oxadiazacyclotetradecin-7(8H)-one]
10 | 4.16 nM | O=C1Nc2cc3cnn(C(F)F)c3c(n2)/C=C\COC[C@H](c2ccccc2)N1 [Example 10, (9S,13Z)-1-(Difluoromethyl)-9-phenyl-1,6,9,10-tetrahydro-12H-5,15-(azeno)pyrazolo[4,3-i][1,4,6]oxadiazacyclotetradecin-7(8H)-one]
11 | 16.2 nM | CCn1ncc2cc3nc(c21)CCCOC(C)(C)[C@H](c1ccccc1)NC(=O)N3 [Example 11, (9S)-1-Ethyl-10, 10-dimethyl-9-phenyl-1,6,9,10,13,14-hexahydro-12H-5,15-(azeno)pyrazolo [4,3-i][1,4,6]oxadiazacyclotetradecin-7(8H)-one]
12 | 734 nM | CCn1ncc2cc3nc(c21)CCCOC(C)(C)[C@@H](c1ccccc1)NC(=O)N3 [Example 12, (9R)-1-Ethyl-10,10-dimethyl-9-phenyl-1,6,9,10,13,14-hexahydro-12H-5,15-(azeno)pyrazolo[4,3-i][1,4,6]oxadiazacyclotetradecin-7(8H)-one]
13 | 757 nM | CCn1ncc2cc3nc(c21)CCCO[C@@H](CO)[C@@H](c1ccccc1)NC(=O)N3 [Example 13, (9R,10R)-1-Ethyl-10-(hydroxymethyl)-9-phenyl-1,6,9,10,13,14-hexahydro-12H-5,15-(azeno)pyrazolo[4,3-i][1,4,6]oxadiazacyclotetradecin-7(8H)-one]
14 | 3.44 nM | CCn1ncc2cc3nc(c21)CCCO[C@H](CO)[C@H](c1ccccc1)NC(=O)N3 [Example 14, (9S,10S)-1-Ethyl-10-(hydroxymethyl)-9-phenyl-1,6,9,10,13,14-hexahydro-12H-5,15-(azeno)pyrazolo[4,3-i][1,4,6]oxadiazacyclotetradecin-7(8H)-one]
15 | 56.8 nM | CN1CCCc2nc(cc3cnn(C)c23)NC(=O)N[C@@H](c2ccccc2)C1 [Example 15, (9S)-1,11-Dimethyl-9-phenyl-1,6,9,10,11,12,13,14-octahydro-5,15-(azeno)pyrazolo[3,4-k][1,3,6]triazacyclotetradecin-7(8H)-one]
16 | 85.4 nM | CCn1ncc2cc3nc(c21)OCCCCC(c1ccccc1)NC(=O)N3 (centres unmarked) [Example 16, 1-Ethyl-9-phenyl-1,6,8,9,10,11,12,13-octahydro-7H-5,15-(azeno)pyrazolo [3,4-c][1,7,9]oxadiazacyclotetradecin-7-one]

Row | IC50 | Compound
17 | 58.9 nM | Cn1ncc2cc3nc(c21)OCCCC[C@H](c1ccccc1)NC(=O)N3 [Example 17, (9R)-1-Methyl-9-phenyl-1,6,8,9,10,11,12,13-octahydro-7H-5,15-(azeno)pyrazolo [3,4-c][1,7,9]oxadiazacyclotetradecin-7-one]
18 | 15.7 nM | CCn1ncc2cc3nc(c21)NCCCCC(c1ccccc1)NC(=O)N3 (centres unmarked) [Example 18, 1-Ethyl-9-phenyl-1,6,9,10,11,12,13,14-octahydro-5,15-(azeno)pyrazolo[4,3-f][1,3,9]triazacyclotetradecin-7(8H)-one]
19 | 9.32 nM | Cn1ncc2cc3nc(c21)NCCCC[C@H](c1ccccc1)NC(=O)N3 [Example 19, (9R)-1-Methyl-9-phenyl-1,6,9,10,11,12,13,14-octahydro-5,15-(azeno)pyrazolo[4,3-f][1,3,9]triazacyclotetradecin-7(8 H)-one]
20 | 85.7 nM | CN1CCCCC(c2ccccc2)NC(=O)Nc2cc3cnn(C)c3c1n2 (centres unmarked) [Example 20, 1,14-Dimethyl-9-phenyl-1,6,9,10,11,12,13,14-octahydro-5,15-(azeno)pyrazolo[4,3-f][1,3,9]triazacyclotetradecin-7(8H)-one]
21 | 5.01 nM | CCn1ncc2cc3nc(c21)NCCOC[C@H](c1ccccc1)NC(=O)N3 [Example 21, (9S)-1-Ethyl-9-phenyl-1,6,9,10,13,14-hexahydro-12H-5,15-(azeno)pyrazolo[4,3-i][1,4,6,12]oxatriazacyclotetradecin-7(8H)-one]
22 | 7.91 nM | Cn1ncc2cc3nc(c21)NCCOC[C@H](c1ccccc1)NC(=O)N3 [Example 22, (9 S)-1-Methyl-9-phenyl-1,6,9,10,13,14-hexahydro-12H-5,15-(azeno)pyrazolo[4,3-i][1,4,6,12]oxatriazacyclotetradecin-7(8 H)-one]
23 | 45.1 nM | Cn1ncc2cc3nc(c21)OCCC[C@H](O)[C@H](c1ccccc1)NC(=O)N3 [Example 23, (9S,10S)-10-Hydroxy-1-methyl-9-phenyl-1,6,8,9,10,11,12,13-octahydro-7H-5,15-(azeno)pyrazolo[3,4-c][1,7,9]oxadiazacyclotetradecin-7-one]
24 | 190 nM | Cn1ncc2cc3nc(c21)OCCC[C@@H](O)[C@H](c1ccccc1)NC(=O)N3 [Example 24, (9S,10R)-10-Hydroxy-1-methyl-9-phenyl-1,6,8,9,10,11,12,13-octahydro-7H-5,15-(azeno)pyrazolo[3,4-c][1,7,9]oxadiazacyclotetradecin-7-one]
25 | 24.3 nM | CCn1ncc2cc3nc(c21)OCCC[C@H](O)[C@H](c1ccccc1)NC(=O)N3 [Example 25, (9S,10S)-1-Ethyl-10-hydroxy-9-phenyl-1,6,8,9,10,11,12,13-octahydro-7H-5,15-(azeno)pyrazolo[3,4-c][1,7,9]oxadiazacyclotetradecin-7-one]
26 | 118 nM | CCn1ncc2cc3nc(c21)OCCC[C@@H](O)[C@H](c1ccccc1)NC(=O)N3 [Example 26, (9S,10R)-1-Ethyl-10-hydroxy-9-phenyl-1,6,8,9,10,11,12,13-octahydro-7H-5,15-(azeno)pyrazolo[3,4-c][1,7,9]oxadiazacyclotetradecin-7-one]
27 | 148 nM | CCn1ncc2cc3nc(c21)OCCC[C@](C)(O)[C@H](c1ccccc1)NC(=O)N3 [Example 27, (9S,10S)-1-Ethyl-10-hydroxy-10-methyl-9-phenyl-1,6,8,9,10,11,12,13-octahydro-7H-5,15-(azeno)pyrazolo[3,4-c][1,7,9]oxadiazacyclotetradecin-7-one]
28 | 144 nM | CCn1ncc2cc3nc(c21)OCCC[C@@](C)(O)[C@H](c1ccccc1)NC(=O)N3 [Example 28, (9S,10R)-1-Ethyl-10-hydroxy-10-methyl-9-phenyl-1,6,8,9,10,11,12,13-octahydro-7H-5,15-(azeno)pyrazolo[3,4-c][1,7,9]oxadiazacyclotetradecin-7-one]
29 | 49.2 nM | Cn1ncc2cc3nc(c21)OCCOC[C@H](c1ccccc1)NC(=O)N3 [Example 29, (9S)-1-methyl-9-phenyl-1,6,9,10,12,13-hexahydro-5,15-(azeno)pyrazolo[4,3-i][1,12,4,6]dioxadiazacyclotetradecin-7(8H)-one]
30 | 230 nM | Cn1ncc2cc3nc(c21)CCCCCC(c1ccccc1)NC(=O)N3 (centres unmarked) [Example 30, 1-Methyl-9-phenyl-1,6,9,10,11,12,13,14-octahydro-5,15-(azeno)pyrazolo[4,3-f][1,3]diazacyclotetradecin-7(8H)-one]
31 | 832 nM | Cn1ncc2cc3nc(c21)CNCCCC(c1ccccc1)NC(=O)N3 (centres unmarked) [Example 31, 1-Methyl-9-phenyl-1,6,9,10,11,12,13,14-octahydro-5,15-(azeno)pyrazolo[3,4-k][1,3,8]triazacyclotetradecin-7(8H)-one]
32 | 50.9 nM | Cn1ncc2cc3nc(c21)COCCCC(c1ccccc1)NC(=O)N3 (centres unmarked) [Example 32, 1-Methyl-9-phenyl-1,6,9,10,11,12-hexahydro-5,15-(azeno)pyrazolo[4,3-k][1,6,8]oxadiazacyclotetradecin-7(8H,14H)-one]
